How the values were obtained:
[1] = test system: HCV replicon in human hepatoma Huh-7 cell line; test: Anti-HCV replicon assay, EC50 (luciferase luminescence); assay type: cell-based; conditions: Hepatitis C virus, Huh-7, 72 h
Method in brief: (§1)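 Huh-7 cells carrying HCV replicon (6000/well) incubated with serially diluted compound, 0.5% DMSO final, 3 days at 37° C, 5% CO2. EC50 from luciferase luminescence after 30 min lysis/substrate at room temperature; CC50 from CellTiter-Glo luminescence after 10 min at room temperature.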

[2] = CC50 assay (CellTiter-Glo) in Huh-7 HCV replicon cells; assay type: cell-based; conditions: human
Method in brief: as §1

| SMILES | EC50 [1] | CC50 at 3 days ([2]; Table 2, 3 days incubation) | CC50 at 3 days ([2]; Table 1, 3 days incubation) |
| --- | --- | --- | --- |
| NS(=O)(=O)c1cccc(CNc2nc(NC3(C(F)(F)F)CC3)c3nc(-c4ccc(F)cc4)ccc3n2)c1 [Example 116, 3-((6-(4-fluorophenyl)-4-(1-(trifluoromethyl)cyclopropyl-amino)pyrido[3,2-d]pyrimidin-2-ylamino)methyl)benzene-sulfonamide] | < 100 nM | > 10000 nM |  |
| CCS(=O)(=O)c1cc(-c2ccc3nc(NCc4ccc(S(N)(=O)=O)cc4)nc(NCC(F)(F)F)c3n2)ccc1OC [Example 149, 4-((6-(3-(ethylsulfonyl)-4-methoxyphenyl)-4-(2,2,2-trifluoroethylamino)pyrido[3,2-d]pyrimidin-2-ylamino)methyl) benzenesulfonamide] | < 100 nM | > 10000 nM |  |
| COCc1ccc(-c2ccc3nc(NCc4ccc(S(N)(=O)=O)cc4)nc(NC4(C(F)(F)F)CC4)c3n2)cc1S(C)(=O)=O [Example 30, 4-{[6-(3-methanesulfonyl-4-methoxymethylphenyl)-4-(1-trifluoromethyl-cyclopropylamino)-pyrido[3,2-d]pyrimidin-2-ylamino]-methyl}-benzenesulfonamide] | < 100 nM | > 10000 nM |  |
| NS(=O)(=O)c1cc(Cl)cc(CNc2nc(NC3(C(F)(F)F)CC3)c3nc(-c4ccc(F)nc4)ccc3n2)c1 [Example 90, 3-chloro-5-((6-(6-fluoropyridin-3-yl)-4-(1-(trifluoromethyl)cyclopropyl-amino)pyrido[3,2-d]pyrimidin-2-ylamino)methyl)benzene-sulfonamide] | < 100 nM | > 10000 nM |  |
| c1ncn(-c2ccc(CNc3nc(OC4CC4)c4nc(-c5cnc(OC6CC6)nc5)ccc4n3)cc2)n1 [Example 254, N-(4-(1H-1,2,4-triazol-1-yl)benzyl)-4-cyclopropoxy-6-(2-cyclopropoxypyrimidin-5-yl)pyrido[3,2-d]pyrimidin-2-amine] | < 100 nM | > 10000 nM |  |
| COc1ccc(-c2ccc3nc(NCc4ccc(S(N)(=O)=O)cc4)nc(NCC(F)(F)F)c3n2)cc1C(F)(F)F [Example 228, 4-((6-(4-methoxy-3-(trifluoromethyl)phenyl)-4-(2,2,2-trifluoroethylamino)pyrido[3,2-d]pyrimidin-2-ylamino)methyl)benzene-sulfonamide] | 250 to 2000 nM | > 10000 nM |  |
| NS(=O)(=O)c1cc(Cl)cc(CNc2nc(NC3(C(F)(F)F)CC3)c3nc(-c4ccc(N5CNCC5=O)cc4)ccc3n2)c1 [Example 45, 3-chloro-5-((6-(4-(5-oxoimidazolidin-1-yl)phenyl)-4-(1-(trifluoromethyl)cyclopropylamino)pyrido [3,2-d]pyrimidin-2-ylamino)methyl)benzenesulfonamide] | < 100 nM | 1000 to 10000 nM |  |
| CS(=O)(=O)c1cc(-c2ccc3nc(NCc4ccc(-n5cncn5)cc4)nc(NCC(F)(F)F)c3n2)ccc1OC(F)F [Example 175, N^2-(4-(1H-1,2,4-triazol-1-yl)benzyl)-6-(4-(difluoro-methoxy)-3-(methylsulfonyl)phenyl)-N^4-(2,2,2-trifluoroethyl) pyrido[3,2-d]pyrimidine-2,4-diamine] | < 100 nM | > 10000 nM |  |
| CS(=O)(=O)c1cccc(CNc2nc(NC3(C(F)(F)F)CC3)c3nc(-c4ccc(N5CCNC5=O)cc4)ccc3n2)c1 [Example 111, 1-(4-(2-(3-(methylsulfonyl)benzylamino)-4-(1-(trifluoromethyl)cyclopropyl-amino)pyrido[3,2-d]pyrimidin-6-yl)phenyl)imidazolidin-2-one] | < 100 nM | 1000 to 10000 nM |  |
| NS(=O)(=O)c1cc(CNc2nc(NC3(C(F)(F)F)CC3)c3nc(-c4ccc(F)cc4)ccc3n2)ccc1F [Example 25, 2-fluoro-5-{[6-(4-fluorophenyl)-4-(1-trifluoromethyl-cyclopropylamino)-pyrido[3,2-d]pyrimidin-2-ylamino]-methyl}-benzenesulfonamide] | < 100 nM | > 10000 nM |  |
| CC1(Oc2nc(NCc3ccc(-n4cncn4)cc3)nc3ccc(-c4cccc(S(C)(=O)=O)c4)nc23)CC1 [Example 189, N-(4-(1H-1,2,4-triazol-1-yl)benzyl)-4-(1-methylcyclo-propoxy)-6-(3-(methylsulfonyl)phenyl)pyrido[3,2-d]pyrimidin-2-amine] | < 100 nM | 1000 to 10000 nM |  |
| NC(=O)c1ccc(CNc2nc(NC3(C(N)=O)CC3)c3nc(-c4ccc(F)cc4)ccc3n2)cn1 [Example 133, 5-((4-(1-carbamoylcyclo-propylamino)-6-(4-fluorophenyl)pyrido[3,2-d]pyrimidin-2-ylamino)methyl)picolinamide] | 100 to 250 nM | > 10000 nM |  |
| CCOc1nc(NCc2ccc(-n3cncn3)cc2)nc2ccc(-c3cccc(S(C)(=O)=O)c3)nc12 [Example 190, N-(4-(1H-1,2,4-triazol-1-yl)benzyl)-4-ethoxy-6-(3-(methylsulfonyl)phenyl)pyrido [3,2-d]pyrimidin-2-amine] | < 100 nM | > 10000 nM |  |
| NS(=O)(=O)c1cc(CNc2nc(NC3(C(F)(F)F)CC3)c3nc(C#CC4CC4)ccc3n2)cc(C(F)(F)F)c1 [Example 106, 3-((6-(2-cyclopropylethynyl)-4-(1-(trifluoromethyl)cyclo-propylamino)pyrido[3,2-d]pyrimidin-2-ylamino)methyl)-5-(trifluoromethyl)benzene-sulfonamide] | < 100 nM | > 10000 nM |  |
| CS(=O)(=O)c1cccc(-c2ccc3nc(NCc4ccc(-n5cccn5)cc4)nc(NCC(F)(F)F)c3n2)c1 [Example 167, N^2-(4-(1H-pyrazol-1-yl)benzyl)-6-(3-(methylsulfonyl)phenyl)-N^4-(2,2,2-trifluoroethyl)pyrido [3,2-d]pyrimidine-2,4-diamine] | < 100 nM | > 10000 nM |  |
| COCC#Cc1ccc2nc(NCc3ccc(S(N)(=O)=O)cc3)nc(NCC(F)(F)F)c2n1 [Example 283, 4-((6-(3-methoxyprop-1-ynyl)-4-(2,2,2-trifluoroethylamino)pyrido[3,2-d]pyrimidin-2-ylamino)methyl)benzene-sulfonamide] | 100 to 250 nM | > 10000 nM |  |
| CCOc1ccc(-c2ccc3nc(NCc4ccc(-n5cncn5)cc4)nc(NCC(F)(F)F)c3n2)cc1S(C)(=O)=O [Example 183, N^2-(4-(1H-1,2,4-triazol-1-yl)benzyl)-6-(4-ethoxy-3-(methylsulfonyl)phenyl)-N^4-(2,2,2-trifluoroethyl)pyrido [3,2-d]pyrimidine-2,4-diamine] | < 100 nM | 1000 to 10000 nM |  |
| NS(=O)(=O)c1cc(CNc2nc(NC3(C(F)(F)F)CC3)c3nc(-c4ccc(F)cc4)ccc3n2)ccc1C(F)(F)F [Example 118, 5-((6-(4-fluorophenyl)-4-(1-(trifluoromethyl)cyclopropyl-amino)pyrido[3,2-d]pyrimidin-2-ylamino)methyl)-2-(trifluoro-methyl)benzenesulfonamide] | 250 to 2000 nM | > 10000 nM |  |
| C[C@@H](Nc1nc(OC2CC2)c2nc(-c3ccc(F)cc3)ccc2n1)c1ccc(S(N)(=O)=O)cc1 [Example 13, (R)-4-{1-[6-(4-Fluoro-phenyl)-4-cyclopropoxy-pyrido[3,2-d]pyrimidin-2-ylamino]-ethyl}-benzenesulfonamide] | 100 to 250 nM |  | 10000 to 25000 nM |
| CC1(Oc2nc(NCc3ccc(-n4cncn4)cc3)nc3ccc(-c4ccc(OC(F)F)c(S(C)(=O)=O)c4)nc23)CC1 [Example 191, N-(4-(1H-1,2,4-triazol-1-yl)benzyl)-6-(4-(difluoro-methoxy)-3-(methylsulfonyl)phenyl)-4-(1-methylcyclo-propoxy)pyrido[3,2-d] pyrimidin-2-amine] | < 100 nM | > 10000 nM |  |
| C#Cc1ccc2nc(NCc3ccc(S(N)(=O)=O)cc3)nc(NCC(F)(F)F)c2n1 [Example 288, 4-((6-ethynyl-4-(2,2,2-trifluoroethylamino)pyrido [3,2-d]pyrimidin-2-ylamino)methyl)benzenesulfonamide] | < 100 nM | 1000 to 10000 nM |  |
| CCOc1ccc(-c2ccc3nc(NCc4ccc(-n5cncn5)cc4)nc(NC4(C(F)(F)F)CC4)c3n2)cn1 [Example 52, N^2-(4-(1H-1,2,4-triazol-1-yl)benzyl)-6-(6-ethoxypyridin-3-yl)-N^4-(1-(trifluoromethyl)cyclopropyl)pyrido[3,2-d] pyrimidine-2,4-diamine] | < 100 nM | 1000 to 10000 nM |  |
| FC(F)(F)CNc1nc(NCc2ccc(-n3cncn3)cc2)nc2ccc(C#CC3CC3)nc12 [Example 287, N^2-(4-(1H-1,2,4-triazol-1-yl)benzyl)-6-(2-cyclopropyl-ethynyl)-N^4-(2,2,2-trifluoroethyl) pyrido[3,2-d]pyrimidine-2,4-diamine] | 100 to 250 nM | > 10000 nM |  |
| NS(=O)(=O)c1cc(-c2ccc3nc(NCc4ccc(-n5cncn5)cc4)nc(NC4(C(F)(F)F)CC4)c3n2)ccc1Cl [Example 37, 5-(2-(4-(1H-1,2,4-triazol-1-yl)benzylamino)-4-(1-(trifluoromethyl)cyclopropyl-amino)pyrido[3,2-d]pyrimidin-6-yl)-2-chlorobenzenesulfonamide] | < 100 nM | 1000 to 10000 nM |  |
| NS(=O)(=O)c1ccc(CNc2nc(NC3(C(F)(F)F)CC3)c3nc(-c4ccc(F)cc4)ccc3n2)c(Cl)c1 [Example 43, 3-chloro-4-((6-(4-fluorophenyl)-4-(1-(trifluoromethyl)cyclopropyl-amino)pyrido[3,2-d]pyrimidin-2-ylamino)methyl)benzene-sulfonamide] | 250 to 2000 nM | > 10000 nM |  |
| COc1ccc(-c2ccc3nc(N[C@H](C)c4ccc(S(N)(=O)=O)cc4)nc(NCC(F)(F)F)c3n2)cc1S(C)(=O)=O [Example 145, 4-((R)-1-(6-(4-methoxy-3-(methylsulfonyl)phenyl)-4-(2,2,2-trifluoroethylamino)pyrido[3,2-d]pyrimidin-2-ylamino)ethyl)benzene-sulfonamide] | 100 to 250 nM | 1000 to 10000 nM |  |
